In ChEMBL document CHEMBL1127915, “Isolation and structure of the symmetrical disteroidal alkaloids cephalostatin 12 and cephalostatin 13” (1994):
Converted amounts (≈) assume the structure as drawn.

Columns and labels:
[1] = system: Panel (Carcinoma cell lines); test: Effective dose for human cancer cell line growth inhibition was determined; format: functional; details: read-out: ED50 (the source's name)
[2] = system: Panel (Carcinoma cell lines); test: Inhibitory activity against human cancer cell line growth was determined; format: functional

EC50 [1] [µg/mL] | GI50 [2] [nM] | Structure (SMILES)
0.046 (≈ 0.0479 µM) | > 1000 | C[C@@H]1[C@]2(O[C@H]3C=C4[C@@H]5CC[C@H]6Cc7nc8c(nc7C[C@]6(C)[C@H]5C[C@@H](O)[C@]4(C)[C@]31O)C[C@@H]1CC[C@H]3C4=C[C@@H]5O[C@]6(O[C@](C)(CO)C[C@H]6O)[C@@H](C)[C@]5(O)[C@@]4(C)[C@H](O)C[C@@H]3[C@@]1(C)[C@H]8O)O[C@](C)(CO)C[C@H]2O [CEPHALOSTATIN 13]
0.072 (≈ 0.0762 µM) | 400 | C[C@@H]1[C@]2(O[C@H]3C=C4[C@@H]5CC[C@H]6Cc7nc8c(nc7C[C@]6(C)[C@H]5C[C@@H](O)[C@]4(C)[C@]31O)C[C@@H]1CC[C@H]3C4=C[C@@H]5O[C@]6(O[C@](C)(CO)C[C@H]6O)[C@@H](C)[C@]5(O)[C@@]4(C)[C@H](O)C[C@@H]3[C@@]1(C)C8)O[C@](C)(CO)C[C@H]2O [CEPHALOSTATIN 12]
 | 1 | C[C@@H]1[C@]2(O[C@H]3C=C4[C@@H]5CC[C@H]6Cc7nc8c(nc7C[C@]6(C)[C@H]5C[C@@H](O)[C@]4(C)[C@]31O)C[C@@H]1CC[C@H]3C4=CC[C@@H]5[C@H](C)[C@@]6(OC[C@]45C(=O)C[C@@H]3[C@@]1(C)C8)OC(C)(C)C[C@H]6O)O[C@](C)(CO)C[C@H]2O [CEPHALOSTATIN 1]
